# Patent publication US20250019371A1, “SMALL-MOLECULAR INHIBITORS FOR THE BETA-CATENIN/ B-CELL LYMPHOMA 9 PROTEIN-PROTEIN INTERACTION” (H. LEE MOFFITT CANCER CENTER AND RESEARCH INSTITUTE, INC., priority 2021, published 2025)
# Legend:
# SW480 = experiment: MTS cell viability assay, SW480; type: cell-based; conditions: Homo sapiens, 72 h, Wnt/β-catenin hyperactive, mean ± SD (n = 3)
# Protocol: (§1) MTS Cell Growth Inhibition Experiments. Colorectal cancer cells (SW480 and HCT116) and triple negative breast cancer cells (MDA-MB-231 and MDA-MB-468) were seeded in 96-well plates at 5×10^3 cells/well in DMEM with 10% FCS, maintained overnight at 37° C., and incubated with the tested compounds at various concentrations. Human mammary epithelial cell MCF10A were seeded in 96-well plates at 1×10^4 cells/well in MEGM (CC-3150, Lonza) with 100 ng/mL cholera toxin, maintained overnight at 37° C., and incubated with the tested compounds at various concentrations. Cell viability was monitored after 72 h using a freshly prepared mixture of 1 part phenazine methosulfate (PMS, Sigma) solution (0.92 mg/mL) and 19 parts 3-(4,5-dimethylthiazol-2-yl)-5-(3-carboxymethoxyphenyl)-2-(4-sulfophenyl)-2H-tetrazolium (MTS, Promega) solution (2 mg/mL). Cells were incubated in 10 μL of this solution at 37° C. for 3 h, and A490 was measured. […] Experiments were performed in triplicate.
# HCT116 = experiment: MTS cell viability assay, HCT116; type: cell-based; conditions: Homo sapiens, HCT-116; 72 h, Wnt/β-catenin hyperactive, mean ± SD (n = 3)
# Protocol: as §1
# MDA-MB-231 = experiment: MTS cell viability assay, MDA-MB-231; type: cell-based; conditions: Homo sapiens, 72 h, Wnt/β-catenin hyperactive, mean ± SD (n = 3)
# Protocol: as §1
# MDA-MB-468 = experiment: MTS cell viability assay, MDA-MB-468; type: cell-based; conditions: Homo sapiens, 72 h, Wnt/β-catenin hyperactive, mean ± SD (n = 3)
# Protocol: as §1
# MCF10A = experiment: MTS cell viability assay, MCF10A; type: cell-based, human; conditions: Homo sapiens, MCF-10A; 72 h, Wnt/β-catenin normal, mean ± SD (n = 3)
# Protocol: as §1
# [1] = tested on: Wnt/β-catenin hyperactive cancer cells; experiment: MTS cell viability assays, cell panel; type: cell-based; conditions: SW480, HCT116, MDA-MB-231, MDA-MB-468; read-out: IC50s for viability of Wnt/β-catenin hyperactive cancer cells
# Protocol: as §1
# [2] = tested on: Wnt/β-catenin signaling (TOPFlash luciferase reporter); experiment: TOPFlash luciferase reporter assay in SW480 cells; type: cell-based; conditions: Homo sapiens, 24 h
# Protocol: The suppressing effect of the inhibitors on transactivation of Wnt/β-catenin signaling was evaluated by the TOPFlash/FOPFlash luciferase reporter assay. In the TOPFlash assay, the luciferase reporter has three wild-type Tcf4 binding sites, while in the FOPFlash assay Tcf4 binding sites were mutated. These tandem Tcf binding sites controls the expression ratio of the firefly luciferase in TOPFlash/FOPFlash assays. The renilla luciferase reporter construct (pCMV-RL) was used as the internal control to normalize luciferase reporter signals and eliminate any possible systematic errors. […] This selectivity trend is consistent with that from MTS cell viability assays. Therefore, further cell-based studies were focused on compound 30.
# Cell Transfection and Luciferase Assay. FuGENE6 (E269A, Promega) 96 well plate format was used for the transfection of SW480 cells according to the manufacturer's instruction. SW480 cells were co-transfected with 60 ng the TOPFlash or FOPFlash firefly luciferase reporter gene and 40 ng renilla luciferase pCMV-RL normalization reporter gene. Cells were cultured in DMEM and 10% FBS at 37° C. for 24 h, and different concentrations of inhibitors or DMSO was added. After 24 h, the luciferase reporter activity was measured using the Dual-Glo system (E2940, Promega). […]
# [3] = tested on: Axin2, cyclin D1 and LEF1 mRNA; experiment: qPCR of Wnt target genes in Wnt 3a-activated MDA-MB-231 cells; type: cell-based, human; conditions: 24 h, HPRT spared
# Protocol: (§2) Quantitative Real Time PCR analysis. SW480 cells at 1×10^6 cells/mL were treated with inhibitors at different concentrations for 24 h. MDA-MB-231 cells at 1×10^6 cells/mL were treated with 100 ng/mL recombinant Wnt 3a (rmW3aL-010, Time BioScience) for 30 min, then the inhibitors at different concentration were added and incubated for 24 h. Total RNAs were extracted with TRIzol (15596026, Life Technologies), and the cDNA was synthesized with the superscript III first-strand kit (18080-051, Invitrogen). qPCR experiments were performed using the iQTM SYBR green supermix kit (170-8880, BIO-RAD) on an CFX96 Real Time System (BIO-RAD). The threshold cycle (CT) values were normalized to that of internal reference GAPDH. Experiments were performed in triplicate. The primer pairs are shown below
# [4] = tested on: Axin2, cyclin D1 and LEF1 mRNA; experiment: qPCR of Wnt target genes in SW480 cells; type: cell-based, human; conditions: 24 h, HPRT spared
# Protocol: as §2
# [5] = tested on: Axin2 and cyclin D1 protein expression; experiment: Western blot of Wnt target genes in SW480 cells; type: cell-based; conditions: 24 h
# Protocol: Western Blotting of Wnt Target Genes. SW480 cells at 1×10^6 cells/mL were treated with different concentrations of inhibitors for 24 h. Cells were lysed in buffer containing 50 mM Tris, pH 7.4, 150 mM NaCl, 1% Nonidet P-40, 2 mM EDTA, and protease inhibitors. After centrifugation at 12,000 rpm for 20 min at 4° C., the supernatant was loaded onto an 8% SDS polyacrylamide gel for electrophoretic analysis. Separated proteins were transferred onto nitrocellulose membranes for immunoblot analysis. The antibodies against Axin2 (MA5-15015, Thermo Fisher), cyclin D1 (sc-853, Santa Cruz Biotechnology), and β-tubulin (sc-55529, Santa Cruz Biotechnology) were incubated with the membranes overnight at 4° C., respectively. IRDye 680LT goat anti-mouse IgG (827-11080, LiCOR) or IRDye 800CW goat anti-rabbit IgG (827-08365, LiCOR) was used as the secondary antibody. The images were detected by the Odyssey Infrared Imaging System (Odyssey Fc, LiCOR). Experiments were performed in duplicate.
smiles,measurement,setting,value
"CC(C)(Oc1cccc(N2CCC[C@H](C(=O)N(Cc3ccc(-c4cccs4)cc3)C3CC3)C2)c1)C(=O)NS(=O)(=O)c1ccc(C#N)cc1 [Compound 30, (S)-((4-Cyanophenyl)sulfonyl) (2-(3-(3-(cyclopropyl(4-(thiophen-2-yl)benzyl)carbamoyl)piperidin-1-yl)phenoxy)-2-methylpropanoyl)amide]",IC50,SW480,16.3 ± 2.04 µM
same,IC50,HCT116,29.6 ± 1.02 µM
same,IC50,MDA-MB-231,14.3 ± 0.57 µM
same,IC50,MDA-MB-468,17.8 ± 1.01 µM
same,IC50,MCF10A,139 ± 3.16 µM
same,IC50,[1],14 to 30 µM
same,IC50,[2],6.6 µM
same,"transcription of Wnt target genes Axin2, cyclin D1, LEF1 (qPCR)",[3],dose-dependently inhibited transcription of these Wnt target genes
same,"transcription of Wnt target genes Axin2, cyclin D1, LEF1 (qPCR)",[4],dose-dependently inhibited transcription of these Wnt target genes
same,protein expression levels of Axin2 and cyclin D1 (Western blot),[5],dose-dependently decreased
